One test relates to LNCaP-FGC cells. Briefly: Proliferation of LNCaP-FGC cells in CDHuS with androgen. Type of test: cell-based, human. From the text:
Androgens regulate prostate cell numbers and cell proliferation by three major mechanisms: a) inhibition of cell death (apoptosis), b) induction of cell proliferation (Step-1), and c) inhibition of cell proliferation (proliferative shutoff, Step-2) (Isaacs (1985) Prostate 5:545–557; Bruchovsky et al. (1975) Vit. &Horm. 33:61–102; Sonnenschein et al., (1989) Cancer Res. 49:3474–3481). Androgens affect epithelial and stromal cell types which, in turn, interact in the prostate (Hayward et al., (1997) Brit. J. Urol. Suppl. 2: 18–26). […] Proliferation is inhibited in these cells by sex steroid-stripped (charcoal-dextran treated) human serum (CDHuS) (Sonnenschein et al., (1989) Cancer Res. 49:3474–3481). Low androgen concentrations cancel this inhibition (Step-1) and at higher levels, androgens induce an irreversible proliferative shutoff (Step-2) (Sonnenschein et al., (1989) Cancer Res. 49:3474–3481; Soto et al., (1995) Oncology Res. 7: 545–558). During the shutoff period, these cells remain in the G0/G1 phase of the cell cycle. Prostate specific antigen (PSA) induction, however, is still dependent on androgens in these postmitotic cells (Soto et al., (1995) Oncology Res. 7: 545–558). […]

Another test relates to STFX1 cells. The experiment in a line: BrdU incorporation, percent BrdU-labeled nuclei of STFX1 cells containing vector only or AS3 antisense constructs. Format: cell-based. As to conditions: for percent BrdU-labeled nuclei: 10 nM R1881 for 24 h, BrdU labeling. From the text:
In particular, the AS3 antisense gene was cloned into the Clontech pRevTRE™ retroviral vector under the control of a tetracycline sensitive promoter. The promoter has seven repeats of the bacterial tetO operator sequence upstream of the minimal CMV promoter which can be bound by the tetracycline transactivator (tTA). The tTA is a fusion protein between the bacterial tetracycline repressor and the […] herpes virus transactivator. The tetracycline transactivator is sensitive for tetracycline such that, in the presence of tetracycline, the transactivator cannot bind the tetracycline promoter so the transgene is “off” and conversely, in the absence of tetracycline, the gene is “on” (i.e., the Tet-Off™ system; see, e.g., Clontech pRevTRE™ manual for further details).
The supernatants containing the highest amounts of virions were then used to infect the STFX1 cell line, a derivative of the MCF7-AR1 that has a tetracycline transactivator gene stably integrated. During the cloning and selection procedures, cells were maintained in 1 μg/mL of tetracycline to suppress the expression of the inducible transgenes.
In order to characterize the cell lines expressing AS3 antisense and the “control” cell lines having vector without insert, cells were incubated in the presence (i.e., the transgene is off) and absence of tetracycline (i.e., the transgene is on) and, after 36 hours, assayed for transcript expression using RT-PCR under standard conditions,
To determine the affect of androgen induced AS3 suppression of cellular growth, cells lines showing high levels of inducible AS3 antisense expression were chosen for further study. Cells were seeded onto coverslips in standard growth medium and allowed to grow for 5 days in the presence of 10 μg/ml tetracycline (hereafter “tet”). Then, vehicle or 10 nM of the androgen R1881 was added. Finally, 24 hours later, the cells were treated with 10 μg/ml of bromodeoxyuridine (BrdU) for several hours to measure the percent of cells actively proliferating as a function of BrdU incorporation during DNA replication. The cells were then fixed, Hoechst stained, and the percent number of BrdU-labeled cells was determined using immunocytochemistry (using standard BrdU labeling regents and protocols from Boheringer).

The subject of another test is AS3. Briefly: Expression analysis of the AS3 transcript in LNCaP-FGC cells. Format: cell-based, human. How it is done: Briefly, androgen-specific, low-abundance regulatory mRNA sequences expressed during the proliferative shutoff, were selected using the Wang-Brown approach (Wang et al., (1991) Proc. Natl. Acad. Sci. USA 88: 11505–11509). […] LNCaP-FGC cells were treated with 30 nM R1881 to generate proliferative shutoff. R1881 (methyltrienolone) is a synthetic, non-metabolized androgen (Roussell-UCLAF, Romainville, France). Exposure to androgen for 24 hours was required to commit LNCaP-FGC cells to an irreversible proliferative shutoff (Geck et al., (1997) J. Steroid Biochem. Mol. Biol. 63: 211–218). […] LNCaP-FGC cells reversibly arrested by CDHuS were considered as the shutoff-negative control; they were harvested after three days of CDHuS treatment. Total RNA was prepared by the acidic guanidinium-thiocyanate method and polyA RNA was purified by using the FastTrack™ kit (Invitrogen, San Diego, Calif.) (Chomczinsky et al., (1987) Anal. Biochem. 162: 156–159).
Furthermore, expression of the AS3 transcript positively correlated with proliferation arrest as this gene was expressed only in shutoff-positive cell lines and variants. […] An additional observation that indicates the AS3 gene codes for an inhibitor of the proliferation of prostate cells is the increase of AS3 mRNA levels in the rat prostate when proliferation was arrested by prolonged androgen administration. […]

Setting [1] is: CDHuS supplemented with 30 pM R1881.

As to `C[C@]1(O)CC[C@H]2[C@@H]3CCC4=CC(=O)CCC4=C3C=C[C@@]21C` [R1881, methyltrienolone], the “proliferation of LNCaP-FGC cells” value is listed as “inhibited from proliferating” in the test on LNCaP-FGC cells (0.3–30 nM of R1881) and “proliferated maximally” in the test on LNCaP-FGC cells (setting [1]). The proliferative shutoff result with STFX1 cells (AS3 levels reduced by antisense expression in the absence of tetracycline (sample 8 vs sample 6), 10 nM R1881) is “no longer induces a proliferative shutoff”. The “percent BrdU-labeled nuclei” value in the test with STFX1 cells (STFX1 cells with AS3 antisense construct, +tet (antisense uninduced)) is reported as 9.7 +/−0.6%; with STFX1 cells (STFX1 cells with AS3 antisense construct, −tet (antisense expressed)) it was 29.1 +/−1.6%; in the test with STFX1 cells (STFX1 cells with empty vector, +tet (10 μg/ml)), 9.4 +/−1.7%; with STFX1 cells (STFX1 cells with empty vector, −tet (vector induced)), 10.7 +/−0.9%. Moreover, in the test on STFX1 cells (cellular levels of AS3 unaffected (samples 2, 4, 6) compared to sample 1 without androgen, 10 nM R1881), the “number of proliferating cells in S phase” value was “significant decrease”. For the same compound, the values for the AS3 expression entry in the test on AS3 (0.3–30 nM of R1881) and in the test with AS3 (setting [1]) were “strongly induced” and “not expressed”, respectively.

For the origin of these results see US6994992B1, “Androgen-induced suppressor of cell proliferation and uses thereof” (Trustees of Tufts College, priority 1999, dated 2006).
